According to patent US20220251081A1, “HETEROBICYCLIC INHIBITORS OF MAT2A AND METHODS OF USE FOR TREATING CANCER” (priority 2019, published 2022):

Key:
[1] = target: T1, MAT2A homodimer (Homo sapiens, UniProt P31153); assay: Biochemical assay: inhibition of recombinant MAT2A homodimer (phosphate release, PiColorLock Gold); details: MAT2A IC50 score; read-out: Enzyme Inhibition
T1 construct: inferred from Ni sepharose purification and imidazole elution; made in house; host or cells: Sf9 insect cells, recombinant baculovirus (Bac to Bac, pFASTBAC1 vector)
T1 sequence (P31153 whole entry): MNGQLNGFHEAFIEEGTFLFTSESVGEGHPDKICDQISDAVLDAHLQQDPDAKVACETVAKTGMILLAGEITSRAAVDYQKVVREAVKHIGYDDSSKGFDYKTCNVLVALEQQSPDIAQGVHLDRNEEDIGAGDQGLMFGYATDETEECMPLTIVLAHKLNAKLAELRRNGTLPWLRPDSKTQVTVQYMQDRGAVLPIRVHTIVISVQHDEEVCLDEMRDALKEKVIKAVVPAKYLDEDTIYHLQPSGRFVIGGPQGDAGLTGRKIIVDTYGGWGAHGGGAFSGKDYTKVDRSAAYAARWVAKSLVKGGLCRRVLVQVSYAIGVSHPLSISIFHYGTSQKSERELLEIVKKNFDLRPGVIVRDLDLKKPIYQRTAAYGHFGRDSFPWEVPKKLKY
In short: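 Baculovirus/Sf9-expressed, Ni-purified MAT2A at 4 μg/mL in pH 8.0 Tris/KCl/MgCl2/EDTA/BSA buffer, preincubated with compound 60 min at 25 °C. Started with ATP and L-methionine substrate mix (500 μM and 40 μM, stock in mix), 60 min at 25 °C; released phosphate by PiColorLock Gold against a phosphate standard curve.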

[2] = system: SAM in HCT116 human colon carcinoma cell line with deleted MTAP gene; assay: Cellular assay of target engagement (SAM): SAM level by LC-MS/MS after 72 hrs; assay type: cell-based; details: HCT-116, IC50 score, read-out: Cell 72 h SAM Inhibition (MTAP −/−)
In short: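 MTAP-deleted HCT116 cells were seeded, then exposed 24 h later to a 10-point 3-fold compound dilution series for 72 h at 37 °C/5% CO2. They were lysed in cold 80% methanol/acetic acid containing d3-SAM internal standard. SAM was quantified by LC-MS/MS (MRM, m/z 399.2→250.1).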

[3] = system: HCT116 MTAP +/+; assay: Inhibition of cellular proliferation, 4 days, Cell Titer Glo, HCT116 MTAP+/+; assay type: cell-based; details: Homo sapiens, HCT-116, 96 h, IC50 score, read-out: 4 Day Relative Growth Inhibition (MTAP +/+)
In short: (§1)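 Isogenic human colon carcinoma lines differing only in MTAP status, plated 24 h before dosing, then exposed for 4 days at 37 °C/5% CO2 to a 10-point 3-fold dilution series (0.2% DMSO final). Read-out is Cell Titer Glo ATP luminescence, blank-subtracted and normalised to in-plate DMSO control, plotted as % proliferation change versus log molar concentration.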

[4] = system: HCT116 MTAP-/-; assay: Inhibition of cellular proliferation, 4 days, Cell Titer Glo, HCT116 MTAP-/-; assay type: cell-based; details: Homo sapiens, HCT-116, 96 h, IC50 score, read-out: 4 Day Relative Growth Inhibition (MTAP −/−)
In short: as §1

Row | IC50 [1] [nM] | IC50 [2] [nM] | IC50 [3] [nM] | IC50 [4] [nM] | SMILES
1 | < 100 | < 100 | ≥ 1000 | < 100 | COc1ccc(-n2c(=O)c(-c3ccc4nc(C)n(C)c4c3)nc3ccc(OCC(F)(F)F)nc32)cc1 [Example 340]
2 | < 100 | < 100 | ≥ 1000 | < 100 | CCNc1ccc2nc(-c3ccc4nn(C)cc4c3)c(=O)n(-c3ccc(OC)cc3)c2n1 [Example 341]
3 | < 100 | < 100 | 100 to 1000 | < 100 | [2H]C([2H])([2H])Oc1ccc(-n2c(=O)c(-c3ccc4nn(C)cc4c3)cc3ncc(OCC)nc32)cc1 [Example 342]
4 | < 100 | < 100 | ≥ 1000 | < 100 | COc1ccc(-n2c(=O)c(-c3ccc4nn(C)cc4c3)cc3ncc(OCC(F)(F)F)nc32)cc1 [Example 343, 5-(4-methoxyphenyl)-7-(2-methyl-2H-indazol-5-yl)-3-(2,2,2-trifluoroethoxy)pyrido[2,3-b]pyrazin-6(5H)-one]
5 | < 100 | < 100 | ≥ 1000 | < 100 | [2H]C([2H])([2H])Oc1ccc(-n2c(=O)c(-c3ccc4nn(C)cc4c3)cc3ncc(OCC(F)F)nc32)cc1 [Example 344]
6 | < 100 | < 100 | ≥ 1000 | 100 to 1000 | [2H]C([2H])([2H])Oc1ccc(-n2c(=O)c(-c3ccc4nn(C)cc4c3)cc3ncc(OCC(F)(F)F)nc32)cc1 [Example 345]
7 | < 100 | < 100 | ≥ 1000 | < 100 | Cn1cc2cc(-c3nc4ccc(OCC(F)(F)F)nc4n(-c4ccc(Br)cc4)c3=O)ccc2n1 [Example 346, 4-(4-bromophenyl)-2-(2-methyl-2H-indazol-5-yl)-6-(2,2,2-trifluoroethoxy)pyrido[2,3-b]pyrazin-3(4H)-one]
8 | < 100 | < 100 | ≥ 1000 | 100 to 1000 | COc1ccc(-n2c(=O)c(-c3ccc4nn(CCN)cc4c3)nc3ccc(OCC(F)(F)F)nc32)cc1 [Example 347, 2-(2-(2-aminoethyl)-2H-indazol-5-yl)-4-(4-methoxyphenyl)-6-(2,2,2-trifluoroethoxy)pyrido[2,3-b]pyrazin-3(4H)-one]
9 | < 100 | < 100 | ≥ 1000 | < 100 | CNc1ccc(-n2c(=O)c(-c3ccc4nn(C)cc4c3)nc3ccc(OCC(F)(F)F)nc32)cn1 [Example 348, 2-(2-methyl-2H-indazol-5-yl)-4-(6-(methylamino)pyridin-3-yl)-6-(2,2,2-trifluoroethoxy)pyrido[2,3-b]pyrazin-3(4H)-one]
10 | < 100 | < 100 | ≥ 1000 | < 100 | COc1ccc(-n2c(=O)c(-c3ccc4nc(N)n(C)c4c3)nc3ccc(OCC(F)(F)F)nc32)cc1 [Example 351, 2-(2-amino-1-methyl-1H-benzo[d]imidazol-6-yl)-4-(4-methoxyphenyl)-6-(2,2,2-trifluoroethoxy)pyrido[2,3-b]pyrazin-3(4H)-one]
11 | < 100 | < 100 | 100 to 1000 | < 100 | COc1ccc(-n2c(=O)c(-c3ccc4nn(C)cc4c3)nc3c(N)cc(OCC(F)(F)F)nc32)cc1 [Example 352, 8-amino-4-(4-methoxyphenyl)-2-(2-methyl-2H-indazol-5-yl)-6-(2,2,2-trifluoroethoxy)pyrido[2,3-b]pyrazin-3(4H)-one]
12 | < 100 | < 100 | ≥ 1000 | < 100 | COc1ccc(-n2c(=O)c(-c3ccc4nc(N)n(C)c4c3)cc3ccc(OCC(F)(F)F)nc32)cc1 [Example 353, 3-(2-amino-1-methyl-1H-benzo[d]imidazol-6-yl)-1-(4-methoxyphenyl)-7-(2,2,2-trifluoroethoxy)-1,8-naphthyridin-2(1H)-one]

The remaining lines, values behind:

Row | SMILES | IC50 [1] [nM] | IC50 [2] [nM] | IC50 [3] [nM] | IC50 [4] [nM]
13 | [2H]C([2H])([2H])Oc1ccc(-n2c(=O)c(-c3ccc4nn(C)cc4c3)nc3ccc(OCC(F)F)nc32)cc1 [Example 325] | < 100 | < 100 | ≥ 1000 | < 100
14 | [2H]C([2H])([2H])Oc1ccc(-n2c(=O)c(-c3ccc4nn(C)cc4c3)nc3ccc(OCC(F)(F)F)nc32)cc1 [Example 326] | < 100 | < 100 | ≥ 1000 | < 100
15 | COc1ccc(-n2c(=O)c(-c3ccc4nn(C)cc4c3)nc3ccc(OCC(F)(F)F)nc32)cc1 [Example 327] | < 100 | < 100 | ≥ 1000 | < 100
16 | Cn1cc2cc(-c3nc4ccc(OCC(F)(F)F)nc4n(-c4ccc(OC(F)F)cc4)c3=O)ccc2n1 [Example 328] | < 100 | < 100 | ≥ 1000 | < 100
17 | Cn1cc2cc(-c3nc4ccc(OCC(F)(F)F)nc4n(-c4ccc(C5CC5)cc4)c3=O)ccc2n1 [Example 329] | < 100 | < 100 | ≥ 1000 | < 100
18 | CCOc1ccc2nc(-c3ccc4nn(C)cc4c3)c(=O)n(-c3ccc(C4CC4)cc3)c2n1 [Example 330] | < 100 | < 100 | ≥ 1000 | < 100
19 | [2H]C([2H])([2H])Oc1ccc(-n2c(=O)c(-c3ccc4nn(C)cc4c3)nc3ccc(OC(C)C)nc32)cc1 [Example 331] | < 100 | < 100 | ≥ 1000 | < 100
20 | Cn1cc2cc(-c3nc4ccc(OCC(F)(F)F)nc4n(-c4ccc(C5CC5)nc4)c3=O)ccc2n1 [Example 332] | < 100 | < 100 | ≥ 1000 | < 100
21 | Cc1ccc(-n2c(=O)c(-c3ccc4nn(C)cc4c3)nc3ccc(OCC(F)(F)F)nc32)cn1 [Example 333] | < 100 | < 100 | ≥ 1000 | 100 to 1000
22 | COc1ccc(-n2c(=O)c(-c3ccc4nn(CCO)cc4c3)nc3ccc(OCC(F)(F)F)nc32)cc1 [Example 335, 2-(2-(2-hydroxyethyl)-2H-indazol-5-yl)-4-(4-methoxyphenyl)-6-(2,2,2-trifluoroethoxy)pyrido[2,3-b]pyrazin-3(4H)-one] | < 100 | < 100 | ≥ 1000 | < 100
23 | CCNc1ccc2nc(-c3ccc4nn(C)cc4c3)c(=O)n(-c3ccc(OC(F)F)cc3)c2n1 [Example 338] | < 100 | < 100 | < 100 | < 100
